The results in this text go back to the supplement of paper PMC4858399.

What all share (details): exposure time 48 h
Assay [1] relates to Caenorhabditis elegans N2. As to the kind of experiment: mean nematode size ln(EXT) after 48 h, plate-adjusted (DMSO control set to 6) (ln(EXT), control-adjusted); higher = larger nematodes / less growth inhibition. The essentials:
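A growth model removed debris from Biosort extinction readings taken on each worm. These worms were synchronised C. elegans N2 L1 larvae, 50 per well in 4–6 wells per treatment, grown for 48 h at 20°C in K-medium with killed OP50, 1% DMSO and 0.5–200 µM chemical. Readings were natural-logged and averaged by well to give mean size. On each plate, the vehicle control mean was subtracted and 6 was added.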

Assay [2] deals with Caenorhabditis elegans N2. As to the kind of experiment: AC50 for larval growth inhibition (Hill fit); higher = less potent. In outline:
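Synchronised C. elegans N2 L1 larvae, 50 per well in 96-well plates, were grown at 20°C for 48 h in K-medium with killed OP50, 1% DMSO and 0.5–200 µM chemical. Worm size was read on a COPAS Biosort as extinction, log-transformed and averaged per well, and only wells holding at least 10 worms were kept. AC50 was obtained by a constrained Hill fit using weighted genetic-algorithm regression, with out-of-range values censored.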

Assay [3] concerns Caenorhabditis elegans N2. The assay is described as follows: lowest effective concentration for larval growth inhibition (size below effect threshold); higher = less potent. In outline:
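Worm size was taken as per-worm extinction on the Biosort, log-transformed and turned into well means. The larvae (C. elegans N2, L1 stage, 50 per 96-well) had spent 48 h at 20°C in K-medium with killed bacteria, 1% DMSO and 0.5, 1, 5, 10, 50, 100 or 200 µM chemical. The lowest effective concentration marks the first dose where the plate-adjusted mean size drops under a cutoff and remains under it at every higher dose; the cutoff is 5.665.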

SMILES strings stand for the structures.

Regarding `Cc1cc(SC2=C(O)C[C@@](CCc3ccc(N)cc3)(C(C)C)OC2=O)c(C(C)(C)C)cc1CO`, the “mean nematode size ln(EXT) (ln)” value in assay [1] (0.5 µM) came out at 5.92; in assay [1] (1 µM) it was 6.15; in assay [1] (5 µM), 6.21; in assay [1] (10 µM), 6.22; in assay [1] (50 µM), 6.19; in assay [1] (100 µM), 6.07. Further, the “mean nematode size ln(EXT) (ln)” value in assay [1] (200 µM) was 5.64. The “AC50 for larval growth inhibition” value in assay [2] is 186 µM. In assay [3], this compound showed a lowest effective concentration of 200 µM.
With `Cc1cc2c(cc1C(F)(F)F)N(C(=O)Nc1ccc(Oc3cccnc3C)nc1)CC2`, the “mean nematode size ln(EXT) (ln)” value was found to be 5.88 in assay [1] (0.5 µM); 5.73 in assay [1] (1 µM); 5.86 in assay [1] (5 µM); 5.71 in assay [1] (10 µM); 5.75 in assay [1] (50 µM); 5.67 in assay [1] (100 µM). Besides, the “mean nematode size ln(EXT) (ln)” value in assay [1] (200 µM) is 5.57. The “AC50 for larval growth inhibition” value in assay [2] is more than 200 µM. Moreover, the lowest effective concentration in assay [3] is 200 µM.
As to `Cc1cc2c3c(c1)C(c1ccccc1)=N[C@@H](NC(=O)c1ccncc1)C(=O)N3CC2`, the “mean nematode size ln(EXT) (ln)” value in assay [1] (0.5 µM) was determined as 5.86; in assay [1] (1 µM), 5.88; in assay [1] (5 µM) it was 5.88; in assay [1] (10 µM) it was 5.88; in assay [1] (50 µM) it was 5.9; in assay [1] (100 µM), 5.83. Moreover, the “mean nematode size ln(EXT) (ln)” value in assay [1] (200 µM) came out at 5.23. Moreover, the “AC50 for larval growth inhibition” value in assay [2] is more than 200 µM. In assay [3], this compound registered a lowest effective concentration of 200 µM.
As for `N#Cc1ccc(N(CC(N)=O)CC(F)(F)F)cc1C(F)(F)F`, the “mean nematode size ln(EXT) (ln)” value in assay [1] (0.5 µM) amounted to 5.89; in assay [1] (1 µM), 5.86; in assay [1] (5 µM), 5.91; in assay [1] (10 µM), 6; in assay [1] (50 µM), 5.95; in assay [1] (100 µM), 5.91. Moreover, the “mean nematode size ln(EXT) (ln)” value in assay [1] (200 µM) is 5.47. The “AC50 for larval growth inhibition” value in assay [2] is more than 200 µM. In addition, in assay [3], the lowest effective concentration amounted to 200 µM.
On to `NC(=O)N(O)[C@@H]1COc2cc(OCc3ccccc3)ccc21`, for which the “mean nematode size ln(EXT) (ln)” value in assay [1] (0.5 µM) turned out to be 5.86; in assay [1] (1 µM), 5.87; in assay [1] (5 µM) it was 5.82; in assay [1] (10 µM) it was 5.77; in assay [1] (50 µM) it was 5.84; in assay [1] (100 µM), 5.81. Further, the “mean nematode size ln(EXT) (ln)” value in assay [1] (200 µM) is 5.59. Moreover, in assay [2], the “AC50 for larval growth inhibition” value is more than 200 µM. Also, the lowest effective concentration in assay [3] was determined as 200 µM.
As to `O=C(NC(=O)c1cc(F)c(F)cc1Cl)Nc1cc(F)ccc1N1CCC(C(=O)O)CC1`, the “mean nematode size ln(EXT) (ln)” value in assay [1] (0.5 µM) was 5.94; in assay [1] (1 µM), 5.9; in assay [1] (5 µM), 5.94; in assay [1] (10 µM), 5.9; in assay [1] (50 µM), 5.93; in assay [1] (100 µM), 5.73. For the same compound, in assay [1] (200 µM), the “mean nematode size ln(EXT) (ln)” value was 5.57. Further, the “AC50 for larval growth inhibition” value in assay [2] worked out at 91.3 µM. In assay [3], this compound came in with a lowest effective concentration of 200 µM.
Take `O=C(Nc1ccc2[nH]ccc2c1)c1cc2cc(F)ccc2n1Cc1cccc(F)c1`: the “mean nematode size ln(EXT) (ln)” value in assay [1] (0.5 µM) is 5.77; in assay [1] (1 µM), 5.57; in assay [1] (5 µM), 5.5; in assay [1] (10 µM), 3.83; in assay [1] (50 µM) it was 3.84; in assay [1] (100 µM), 3.62. Further, the “mean nematode size ln(EXT) (ln)” value in assay [1] (200 µM) came out at 3.51. For the same compound, in assay [2], the “AC50 for larval growth inhibition” value stood at 6.54 µM. The compound also had a lowest effective concentration in assay [3] of 1 µM.
In the case of `O=C(O)c1cccc(C[C@@H]2COc3ccc(OCc4nc5cc(F)ccc5s4)cc3[C@@H]2O)c1`, the “mean nematode size ln(EXT) (ln)” value was 5.95 in assay [1] (0.5 µM); 5.88 in assay [1] (1 µM); 5.79 in assay [1] (5 µM); 5.88 in assay [1] (10 µM); 5.87 in assay [1] (50 µM); 5.92 in assay [1] (100 µM). In addition, in assay [1] (200 µM), the “mean nematode size ln(EXT) (ln)” value was found to be 5.09. In assay [2], the “AC50 for larval growth inhibition” value is more than 200 µM. Moreover, the lowest effective concentration in assay [3] was determined as 200 µM.
Turning to `O=C(O)c1ccccc1-n1cc(C(=O)O)c(=O)c2cc(Nc3c(F)cc(F)cc3Cl)c(Cl)cc21`, the “mean nematode size ln(EXT) (ln)” value in assay [1] (0.5 µM) stood at 5.87; in assay [1] (1 µM), 5.89; in assay [1] (5 µM), 5.95; in assay [1] (10 µM), 5.9; in assay [1] (50 µM), 5.94; in assay [1] (100 µM), 5.85. Besides, the “mean nematode size ln(EXT) (ln)” value in assay [1] (200 µM) stood at 5.63. The “AC50 for larval growth inhibition” value in assay [2] is more than 200 µM. In assay [3], the lowest effective concentration was 200 µM.
As for `OC12N=C(c3ccccc3)SC1Cc1cc(Cl)ccc12` (stereo not given), the “mean nematode size ln(EXT) (ln)” value came out at 5.69 in assay [1] (0.5 µM); 5.74 in assay [1] (1 µM); 5.5 in assay [1] (5 µM); 5.45 in assay [1] (10 µM); 4.53 in assay [1] (50 µM); 4.08 in assay [1] (100 µM). In assay [1] (200 µM), the “mean nematode size ln(EXT) (ln)” value worked out at 3.96. The “AC50 for larval growth inhibition” value in assay [2] was found to be 48.6 µM. This compound also showed a lowest effective concentration in assay [3] of 5 µM.
